These results are taken from ChEMBL document CHEMBL2046330, “Structure-based design of novel benzoxazinorifamycins with potent binding affinity to wild-type and rifampin-resistant mutant Mycobacterium tuberculosis RNA polymerases” (J Med Chem, 2012).

Structures are written as SMILES. pEC50, pIC50: −log10 of the molar value. ≈ marks a conversion by molar mass, not a printed value. Where only a bound is given, the exact number is not on record here.

The test system of one series is Mus musculus. Put plainly: Ratio of Cmax in BALB/c mouse at 10 mg/kg, po administered qd for 5 days to Cmax in BALB/c mouse at 10 mg/kg, po administered as single dose. In kind it is ADME, organism-based. The note with it: in vivo, 120 h.
Series [1] can be described thus: Cmax in BALB/c mouse at 10 mg/kg, po administered as single dose. The format is ADME, organism-based. More on the design: dose 10 mg/kg, route oral. To be noted: in vivo.
Series [2] in a line: Selectivity index, ratio of cytotoxicity against human DPX2 cells to IC50 for Mycobacterium wild type RNA polymerase. The format is toxicity, cell-based. The note with it: read-out: Selectivity Index.
For series [3], the system named is Mycobacterium tuberculosis. Put plainly: microbe, parasite or virus in culture. To be noted: H37Rv, 168 h.
Description: Antitubercular activity against Mycobacterium tuberculosis H37Rv in aerobic conditions after 7 days by microplate-based alamar blue assay
Series [4] can be described thus: Apparent plasma half life in BALB/c mouse at 10 mg/kg, po administered qd for 5 days. To be noted: read-out: t1/2(app) (converted). Also noted: dose 10 mg/kg, route oral. In kind it is ADME, organism-based.
A short description of series [5]: Metabolic stability in mouse microsomes assessed as compound remaining after 30 mins. In kind it is ADME, Microsome. The note with it: read-out: Stability.
In series [6] the test system is Blood. Put plainly: Drug uptake in BALB/c mouse blood at 10 mg/kg, po administered qd for 5 days. In kind it is ADME, organism-based. To be noted: in vivo, 120 h. More on the design: dose 10 mg/kg, route oral.
The nature of series [7]: Tmax in BALB/c mouse at 10 mg/kg, po administered as single dose. The format is ADME, organism-based. More on the design: dose 10 mg/kg, route oral. The note with it: in vivo.
Series [8] is described as follows: T>MIC in BALB/c mouse at 10 mg/kg, po administered qd for 5 days. In kind it is functional.
Series [9] is described as follows: Cytotoxicity against human DPX2 cells expressing PXR assessed as decrease in cell viability at >6.25 uM after 24 hrs. The format is ADME, cell-based. To be noted: dpx2, 24 h.
The nature of series [10]: Tmax in BALB/c mouse at 10 mg/kg, po administered qd for 5 days. The note with it: in vivo. Also noted: dose 10 mg/kg, route oral. The format is ADME, organism-based.
Series [11] is described as follows: Half life in mouse microsomes. In kind it is ADME, Microsome.
Series [12] in a line: Inhibition of Mycobacterium tuberculosis wild type RNA polymerase by rolling circle transcription assay in the absence of sigmaA factor.
Series [13] in a line: Drug uptake in BALB/c mouse lung at 10mg/kg, po administered qd for 5 days. In kind it is ADME, organism-based. The note with it: read-out: Drug uptake.
For series [14], the target named is T1, PXR (NR1I2) (Homo sapiens, UniProt O75469).
T1 sequence (O75469 whole entry): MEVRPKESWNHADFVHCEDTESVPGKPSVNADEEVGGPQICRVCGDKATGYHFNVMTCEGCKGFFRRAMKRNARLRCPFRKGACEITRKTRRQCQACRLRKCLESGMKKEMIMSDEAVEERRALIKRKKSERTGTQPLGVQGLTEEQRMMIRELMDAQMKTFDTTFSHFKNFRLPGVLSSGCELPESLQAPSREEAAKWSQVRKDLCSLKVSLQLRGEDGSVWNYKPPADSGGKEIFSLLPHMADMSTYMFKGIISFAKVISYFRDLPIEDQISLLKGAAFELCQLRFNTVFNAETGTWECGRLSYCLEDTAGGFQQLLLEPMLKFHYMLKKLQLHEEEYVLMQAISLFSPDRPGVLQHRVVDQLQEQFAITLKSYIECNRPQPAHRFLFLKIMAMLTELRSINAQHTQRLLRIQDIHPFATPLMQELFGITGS
Kind of series: Activation of PXR in human DPX2 cells at 6.25 uM after 24 hrs by luciferase reporter gene assay relative to control. The format is cell-based. The note with it: read-out: FC. Background: Reporter assays use an easily measured gene product as a stand-in for the process of interest.

A short description of series [15]: Metabolic stability in human microsomes assessed as compound remaining after 30 mins. The format is ADME, Microsome. To be noted: read-out: Stability.
A short description of series [16]: Cmax in BALB/c mouse at 10 mg/kg, po administered qd for 5 days. The note with it: in vivo. More on the design: dose 10 mg/kg, route oral. In kind it is ADME, organism-based.
Series [17] concerns Mycobacterium tuberculosis. Kind of series: microbe, parasite or virus in culture. To be noted: H37Rv, 264 h.
Description: Antitubercular activity against Mycobacterium tuberculosis H37Rv in anaerobic conditions after 11 days by luminescnece-based low-oxygen recovery assay
Series [18] in a line: Inhibition of Mycobacterium tuberculosis wild type RNA polymerase by rolling circle transcription assay in the presence of sigmaA factor.
Series [19] in a line: Half life in human microsomes. The format is ADME, Microsome.
Series [20] has as its system Blood. Kind of series: Drug uptake in BALB/c mouse blood at 10 mg/kg, po administered as single dose. The format is ADME, organism-based. Also noted: dose 10 mg/kg, route oral. To be noted: in vivo, BLD = below limit of detection.
In series [21] the target is T2, Nuclear receptor subfamily 1 group I member 2 (Homo sapiens, UniProt O75469).
T2 sequence (O75469 whole entry): T1 sequence (O75469 whole entry)
Kind of series: Activation of PXR in human DPX2 cells after 24 hrs by luciferase reporter gene assay. The format is cell-based.

A short description of series [22]: Cytotoxicity against human DPX2 cells expressing PXR assessed as decrease in cell viability at 25 uM after 24 hrs. The format is ADME, cell-based. To be noted: dpx2, 24 h.
Series [23] concerns the target T1, PXR (NR1I2). Put plainly: Activation of PXR in human DPX2 cells after 24 hrs by luciferase reporter gene assay relative to control. In kind it is cell-based. The note with it: read-out: FC.
Series [24] deals with T2, Nuclear receptor subfamily 1 group I member 2. Kind of series: Activation of PXR in human DPX2 cells at <100 uM after 24 hrs by luciferase reporter gene assay. The format is cell-based. To be noted: dpx2, 24 h.
A short description of series [25]: Half life in human. The format is ADME, organism-based. To be noted: in vivo.
Series [26] can be described thus: Cytotoxicity against human DPX2 cells expressing PXR assessed as decrease in cell viability at 100 uM after 24 hrs relative to control. To be noted: dpx2, 24 h. The format is ADME, cell-based.
Series [27] has as its target T1, PXR (NR1I2). Kind of series: Activation of PXR in human DPX2 cells at 100 uM after 24 hrs by luciferase reporter gene assay relative to control. The format is cell-based. To be noted: read-out: FC.

Take `CCN(CC)CCOc1cccc2oc3c4c(=O)c5c(O)c(C)c6c(c5c-3nc12)C(=O)[C@@](C)(O/C=C/[C@H](OC)[C@@H](C)[C@@H](OC(C)=O)[C@H](C)[C@H](O)[C@H](C)[C@@H](O)[C@@H](C)/C=C/C=C(/C)C(=O)N4)O6`: in the series on Mus musculus, the Ratio amounted to 100. Further, the Cmax in [1] was 18.5 nM; in series [16] it was 1740 nM. The selectivity ratio in series [2] turned out to be 1000. Besides, the results for the MIC90 in [3] and in [17] were 0.02 µM (≈ 0.018 µg/mL) and 0.37 µM (≈ 0.333 µg/mL), respectively. Also, the figures for the half-life in series [4], in series [11] and in series [19] were 1 h, 2.35 h and 0.9 h, respectively. The remaining at 0.5 h turned out to be 86% in series [5] and 68% in series [15]. In addition, the Drug uptake entry is on record as “Active” with Blood [6] and “BLD” in the series with Blood [20]. In addition, the figures for the Tmax in [7] and in series [10] were 1 h and 2 h, respectively. Further, the “T>MIC” value in series [8] stood at 4 h. In [9], the Activity result was “Toxic”. Moreover, the pIC50 in series [12] and in series [18] was over 8.00 each time. Further, in [13], the concentration at 120 h stood at 400 nM. Besides, the fold induction at 24 h, 6.25 µM on PXR (NR1I2) [14] is 3.
Regarding `CO[C@H]1/C=C/O[C@@]2(C)Oc3c(C)c(O)c4c(=O)c(c5oc6cccc(OCCCCN7CCN(CCn8ccnc8)CC7)c6nc-5c4c3C2=O)NC(=O)/C(C)=C\C=C\[C@H](C)[C@H](O)[C@@H](C)[C@@H](O)[C@@H](C)[C@H](OC(C)=O)[C@@H]1C`, the selectivity ratio in [2] was found to be 1000. In addition, the MIC90 in [3] came out at 0.08 µM (≈ 0.0828 µg/mL); in series [17], 0.35 µM (≈ 0.362 µg/mL). Besides, the Activity result in [9] was “Toxic”. In addition, the pIC50 in series [12] and in [18] was over 8.00 each time. Moreover, the fold induction at 24 h, 6.25 µM at PXR (NR1I2) [14] came out at 3.
Regarding `CO[C@H]1/C=C/O[C@@]2(C)Oc3c(C)c(O)c4c(=O)c(c5oc6cccc(OCCCCN7CCN(C(=O)Cn8ccnc8)CC7)c6nc-5c4c3C2=O)NC(=O)/C(C)=C\C=C\[C@H](C)[C@H](O)[C@@H](C)[C@@H](O)[C@@H](C)[C@H](OC(C)=O)[C@@H]1C`, the MIC90 in series [3] came out at 0.07 µM (≈ 0.0734 µg/mL); in series [17], 0.4 µM (≈ 0.42 µg/mL). Besides, the pEC50 in series [21] was 5.26. Further, the pIC50 in series [12] and in series [18] was over 8.00 in each case. The Activity entry in series [22] was “Toxic”. Further, the fold induction at 24 h at PXR (NR1I2) [23] was 5.9.
Regarding `NNC(=O)c1ccncc1` [ISONIAZID], the MIC90 is 0.24 µM (≈ 0.0329 µg/mL) in series [3] and over 128 µM in series [17].
As for `COc1c(N2C[C@@H]3CCCN[C@@H]3C2)c(F)cc2c(=O)c(C(=O)O)cn(C3CC3)c12` [MOXIFLOXACIN], the MIC90 in series [3] amounted to 0.46 µM (≈ 0.185 µg/mL).
Turning to `O=[N+]([O-])c1cn2c(n1)OC[C@@H](OCc1ccc(OC(F)(F)F)cc1)C2` [PRETOMANID], the MIC90 in [17] was found to be 2.53 µM (≈ 0.909 µg/mL).
As to `CO[C@H]1/C=C/O[C@@]2(C)Oc3c(C)c(O)c4c(=O)c(c5oc6cc(N7CCN(CC(C)C)CC7)cc(O)c6nc-5c4c3C2=O)NC(=O)/C(C)=C\C=C\[C@H](C)[C@H](O)[C@@H](C)[C@@H](O)[C@@H](C)[C@H](OC(C)=O)[C@@H]1C` [RIFALAZIL], the MIC90 in series [3] was under 0.004 µM; in series [17] it was under 0.017 µM. The Activity entry in series [24] is listed as “Not Active”. In addition, the values for the remaining at 0.5 h in series [5] and in [15] were 67% and 73%, respectively. Further, the half-life is 60 h in series [25], 0.883 h in series [11] and 1.08 h in [19]. Further, in series [26], the “fold change (FC)” value turned out to be 2. Also, the pIC50 in series [12] was 7.94; in series [18], over 8.00. The fold induction at 24 h, 100 µM on PXR (NR1I2) [27] turned out to be 2.
`CO[C@H]1/C=C/O[C@@]2(C)Oc3c(C)c(O)c4c(O)c(c(/C=N/N5CCN(C)CC5)c(O)c4c3C2=O)NC(=O)/C(C)=C\C=C\[C@H](C)[C@H](O)[C@@H](C)[C@@H](O)[C@@H](C)[C@H](OC(C)=O)[C@@H]1C` [RIFAMPIN]: the MIC90 in series [3] turned out to be 0.13 µM (≈ 0.107 µg/mL); in series [17], 0.46 µM (≈ 0.379 µg/mL).
In turn, `CN[C@@H]1[C@H](O[C@H]2[C@H](O[C@H]3[C@H](O)[C@@H](O)[C@H](N=C(N)N)[C@@H](O)[C@@H]3N=C(N)N)O[C@@H](C)[C@]2(O)C=O)O[C@@H](CO)[C@H](O)[C@H]1O` [STREPTOMYCIN] showed an MIC90 in series [3] of 0.46 µM (≈ 0.268 µg/mL).

As a reminder, the Cmax is the maximum level reached in the sampled fluid or tissue. By Tmax is commonly meant the time from dosing to the highest level. By pIC50 is commonly meant the negative decadic logarithm of the IC50, by convention in mol/L. By pEC50 is commonly meant the negative decadic logarithm of the EC50, by convention in mol/L.
